For 8 compounds, IC50 and Ratio IC50 results are on record in ChEMBL document CHEMBL1140481, “Synthesis and identification of novel 11beta-aryl-4',5'-dihydrospiro[estra-4,9-diene-17beta,4'-oxazole] analogs with dissociated antiprogesterone activities” (Bioorg Med Chem Lett, 2007).

As usually defined, the IC50 is the point on the concentration scale where inhibition reaches its midpoint.

Some results are limits rather than exact numbers.

Assay [1] concerns the target T1, Progesterone receptor (Homo sapiens, UniProt P06401).
T1 sequence (P06401 whole entry): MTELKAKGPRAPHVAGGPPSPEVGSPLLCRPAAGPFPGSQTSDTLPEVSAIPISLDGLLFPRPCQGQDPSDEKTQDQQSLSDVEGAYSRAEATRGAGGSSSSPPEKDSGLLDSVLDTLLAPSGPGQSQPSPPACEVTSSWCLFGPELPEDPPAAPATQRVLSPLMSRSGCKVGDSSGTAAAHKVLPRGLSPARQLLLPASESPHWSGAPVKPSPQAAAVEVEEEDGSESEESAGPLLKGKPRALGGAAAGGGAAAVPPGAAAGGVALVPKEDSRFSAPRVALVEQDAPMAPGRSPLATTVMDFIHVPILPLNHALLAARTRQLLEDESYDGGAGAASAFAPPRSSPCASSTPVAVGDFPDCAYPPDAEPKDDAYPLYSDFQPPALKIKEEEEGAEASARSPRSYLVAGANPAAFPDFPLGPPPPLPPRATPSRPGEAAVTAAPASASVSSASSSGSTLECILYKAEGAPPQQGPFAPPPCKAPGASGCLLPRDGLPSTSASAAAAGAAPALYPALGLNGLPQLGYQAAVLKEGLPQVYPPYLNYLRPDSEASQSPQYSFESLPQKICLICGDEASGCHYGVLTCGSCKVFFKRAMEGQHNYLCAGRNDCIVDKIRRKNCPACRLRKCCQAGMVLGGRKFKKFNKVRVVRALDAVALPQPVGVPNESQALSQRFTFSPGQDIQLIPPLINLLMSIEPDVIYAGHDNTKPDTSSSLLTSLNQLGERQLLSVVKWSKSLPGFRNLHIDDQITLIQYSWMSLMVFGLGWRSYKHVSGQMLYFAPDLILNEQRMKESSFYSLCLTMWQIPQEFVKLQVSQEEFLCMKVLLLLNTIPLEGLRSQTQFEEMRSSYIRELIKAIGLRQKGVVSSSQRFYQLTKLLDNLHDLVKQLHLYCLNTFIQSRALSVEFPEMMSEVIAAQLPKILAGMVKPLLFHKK
Kind of assay: Antagonist activity at progesterone receptor expressed in human T47D cells assessed as inhibition of promegestone-induced alkaline phosphatase activity. Format: functional, cell-based.

Assay [2] is filed under the species Homo sapiens. Kind of assay: Ratio of IC50 for glucocorticoid receptor to IC50 for progesterone receptor.
For assay [3], the target named is T2, Glucocorticoid receptor (Homo sapiens, UniProt P04150).
T2 sequence (P04150 whole entry): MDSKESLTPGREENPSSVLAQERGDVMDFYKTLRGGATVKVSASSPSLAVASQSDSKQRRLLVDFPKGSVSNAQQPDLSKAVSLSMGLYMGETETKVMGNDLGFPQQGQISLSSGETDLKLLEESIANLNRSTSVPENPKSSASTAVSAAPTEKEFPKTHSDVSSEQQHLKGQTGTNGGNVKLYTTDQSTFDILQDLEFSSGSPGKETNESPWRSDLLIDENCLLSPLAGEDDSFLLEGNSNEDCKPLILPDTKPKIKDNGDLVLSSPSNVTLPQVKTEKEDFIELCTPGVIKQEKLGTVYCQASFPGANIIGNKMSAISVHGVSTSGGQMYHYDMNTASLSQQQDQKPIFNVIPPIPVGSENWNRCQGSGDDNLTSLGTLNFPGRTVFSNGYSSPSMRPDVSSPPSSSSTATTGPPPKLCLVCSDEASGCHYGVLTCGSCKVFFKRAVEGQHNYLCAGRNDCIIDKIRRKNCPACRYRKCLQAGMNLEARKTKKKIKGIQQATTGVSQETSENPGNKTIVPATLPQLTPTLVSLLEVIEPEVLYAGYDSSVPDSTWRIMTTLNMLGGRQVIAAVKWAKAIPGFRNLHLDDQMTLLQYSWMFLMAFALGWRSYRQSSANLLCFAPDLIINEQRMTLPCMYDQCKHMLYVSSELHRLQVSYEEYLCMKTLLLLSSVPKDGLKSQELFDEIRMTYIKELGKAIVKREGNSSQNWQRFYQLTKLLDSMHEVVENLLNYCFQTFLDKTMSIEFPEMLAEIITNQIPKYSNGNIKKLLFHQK
Kind of assay: Antagonist activity at glucocorticoid receptor expressed in A549 cells assessed as inhibition of corticoid-induced gene transcription by luciferase reporter gene assay. Format: functional, cell-based. A general note: In a reporter assay the amount or activity of a reporter protein is the signal.

For `C=C1OC(C)=N[C@]12CC[C@H]1[C@@H]3CCC4=CC(=O)CCC4=C3[C@@H](c3ccc(OC)c(F)c3)C[C@@]12C`, the figures for the half-inhibitory concentration (IC50) in assay [1] and in assay [3] were 4.6 nM and 660 nM, respectively. Besides, the Ratio IC50 in assay [2] came to 140.

For the compound `C=C1OC=N[C@]12CC[C@H]1[C@@H]3CCC4=CC(=O)CCC4=C3[C@@H](c3ccc(C(C)=O)cc3)C[C@@]12C`, the half-inhibitory concentration (IC50) in assay [1] is 82 nM; in assay [3], 14000 nM. Moreover, the Ratio IC50 in assay [2] was determined as 171.

Take `C=C1OC=N[C@]12CC[C@H]1[C@@H]3CCC4=CC(=O)CCC4=C3[C@@H](c3ccc(N(C)C)cc3)C[C@@]12C`: the values for the half-maximal inhibitory concentration (IC50) in assay [1] and in assay [3] were 18 nM and 540 nM, respectively. Further, the Ratio IC50 in assay [2] was determined as 30.

For the compound `C=C1OC(CC)=N[C@]12CC[C@H]1[C@@H]3CCC4=CC(=O)CCC4=C3[C@@H](c3ccc(C(C)=O)cc3)C[C@@]12C`, the IC50 in assay [1] turned out to be 0.34 nM; in assay [3] it was 210 nM. Further, the Ratio IC50 in assay [2] amounted to 620.

Consider `C=C1OC(C)=N[C@]12CC[C@H]1[C@@H]3CCC4=CC(=O)CCC4=C3[C@@H](c3ccc(C(C)=O)cc3)C[C@@]12C`, for which the IC50 in assay [1] was found to be 0.59 nM; in assay [3] it was 460 nM. For the same compound, the Ratio IC50 in assay [2] turned out to be 780.

For `C=C1OC(C)=N[C@]12CC[C@H]1[C@@H]3CCC4=CC(=O)CCC4=C3[C@@H](c3ccc(N(C)C)cc3)C[C@@]12C`, the figures for the IC50 in assay [1] and in assay [3] were 0.63 nM and 82 nM, respectively. In assay [2], the Ratio IC50 is 130.

On to `C=C1OC(CC)=N[C@]12CC[C@H]1[C@@H]3CCC4=CC(=O)CCC4=C3[C@@H](c3ccc(N(C)C)cc3)C[C@@]12C`, for which the IC50 came to 0.98 nM in assay [1] and 23 nM in assay [3]. Also, in assay [2], the Ratio IC50 is 24.

On to `C=C1OC(CC)=N[C@]12CC[C@H]1[C@@H]3CCC4=CC(=O)CCC4=C3[C@@H](c3ccc(OC)c(F)c3)C[C@@]12C`, for which the concentration for half-maximal inhibition (IC50) is 1 nM in assay [1] and greater than 10000 nM in assay [3]. In addition, the Ratio IC50 in assay [2] is greater than 10000.
